From US12679827B2, “Pyrimidine compounds and their pharmaceutical uses” (National Health Research Institutes, priority 2020, dated 2026)
Where two headings read alike, the source gives them in different places.

Tests used:
[1] = tested on: cMYC; test: Western blot, cMYC protein level in NCI-H82 cells; type: cell-based, human; details: NCI-H82 (SCLC) cells; 50, 200, 500, 1000 nM; 24 hours; FIG. 1
Experimental: Compounds 41 and 86, both covered by Formula (I), were tested to assess their efficacies in reducing the level of cMYC oncoprotein in a human small-cell-lung-cancer (“SCLC”) cell line NCI-H82 (ATCC® HTB-175, USA) and the level of MYCN oncoprotein in a human neuroblastoma cell line SK-N-BE(2) (ATCC® CRL-2271, USA) as follows.
NCI-H82 was maintained in RPMI1640 medium (ThermoFisher Scientific, USA) supplemented with 10% fetal bovine serum (FBS, HyClone, USA) and antibiotics. SK-N-BE(2) was maintained in Minimum Essential Medium (MEM, ThermoFisher Scientific, USA) supplemented with 10% FBS (HyClone, USA) and antibiotics. The cancer cells from each cell line were treated with each of compounds 41 and 86 at 4 different compound concentrations, i.e., 50 nM, 200 nM, 500 nM, and 1000 nM. After 24 hours, each cancer cell solution was washed with 1× phosphate buffered saline (PBS), lysed in 1× Laemmli protein sample buffer, and boiled at 100° C. for 10 minutes. Each lysate was separated by SDS-PAGE, transferred to polyvinylidene fluoride (PVDF, Millipore, USA) membrane, and blotted with antibodies. Primary antibodies used for Western blotting were cMYC (Cell Signaling, Cat No. 5605S), MYCN (Cell Signaling, 9405S), PARP-1 (Abcam, ab32378), and GAPDH (Genetex, GTX100118). […]

[2] = tested on: NCI-H446; test: Small-cell-lung cancer cell proliferation inhibition assay (PrestoBlue), NCI-H446; type: cell-based; details: Homo sapiens, cMYC amplified SCLC cells, 72 hours
Experimental: (§1) Small cell lung cancer cells NCI-H82 (ATCC HTB-175, cMYC amplified), NCI-H446 (ATCC® HTB-171, cMYC amplified), and NCI-H69 (ATCC® HTB-119, MYCN amplified) were seeded at the density of 5000-10000 cells per well in 96-well plates. After 24 hours, the cancer cells were treated with each compound at various concentrations (0-10 μM) and then incubated for another 72 hours. IC50 values were computed based on duplicated 8-point titration.

[3] = tested on: NCI-H82; test: Small-cell-lung cancer cell proliferation inhibition assay (PrestoBlue), NCI-H82; type: cell-based; details: Homo sapiens, cMYC amplified SCLC cells, 72 hours
Experimental: as §1

[4] = tested on: NCI-H69; test: Proliferation inhibition of various cancer cells (PrestoBlue), NCI-H69; type: cell-based; details: Homo sapiens, Small cell lung cancer, 72 hours
Experimental: (§2) The efficacies of compounds 41 and 86 of Formula (I) in inhibiting proliferation of eleven types of cancer cells were determined using PrestoBlue™ Cell Viability Reagent (ThermoFisher Scientific, USA). The eleven types of cancer cells are small cell lung cancer, non-small cell lung cancer, liver cancer, pancreatic cancer, breast cancer, colon cancer, prostate cancer, neuroblastoma, brain cancer, leukemia, and cholangiocarcinoma.
(§3) More specifically, […], i.e., NCI-H82 (ATCC® HTB-175), NCI-H446 (ATCC® HTB-171), NCI-H69 (ATCC® HTB-119), NCI-H146 (ATCC® HTB-173), NCI-H1792 (ATCC® CRL-5895), NCI-H1299 (ATCC® CRL-5803), SNU-398 (ATCC® CRL-2233), PSN-1 (ATCC® CRL-3211), MIA PaCa-2 (ATCC® CRL-1420), MDA-MB-231 (ATCC® HTB-26), LOVO (ATCC® CCL-229), COLO 205 (ATCC® CCL-222), PC-3 (ATCC® CRL-1435), SK-N-BE(2) (ATCC® CRL-2271), D341 Med (ATCC® HTB-187), K562 (ATCC® CCL-243), MOLM-13 (DSMZ-German Collection of Microorganisms and Cell Cultures GmbH, ACC No. 554), and SNU-478 (KCLB 00478), were seeded at a density of 4000-10000 cells per well in 96-well plates for 24 hours. The cancer cells were then treated with each compound at various concentrations (0-10 μM), followed by incubation for another 72 hours. IC50 values were computed based on duplicated 8-point titration.

[5] = tested on: NCI-H1792; test: Proliferation inhibition of various cancer cells (PrestoBlue), NCI-H1792; type: cell-based; details: Homo sapiens, Non-small cell lung cancer, 72 hours
Experimental: as §2, §3

[6] = tested on: NCI-H1299; test: Proliferation inhibition of various cancer cells (PrestoBlue), NCI-H1299; type: cell-based; details: Homo sapiens, Non-small cell lung cancer, 72 hours
Experimental: as §2, §3

[7] = tested on: MDA-MB-231; test: Proliferation inhibition of various cancer cells (PrestoBlue), MDA-MB-231; type: cell-based; details: Homo sapiens, Breast cancer, 72 hours
Experimental: as §2, §3

[8] = tested on: PC-3; test: Proliferation inhibition of various cancer cells (PrestoBlue), PC-3; type: cell-based; details: Homo sapiens, Prostate cancer, 72 hours
Experimental: as §2, §3

[9] = tested on: D341 Med; test: Proliferation inhibition of various cancer cells (PrestoBlue), D341 Med; type: cell-based; details: Brain cancer, 72 hours
Experimental: as §2, §3

[10] = tested on: K562; test: Proliferation inhibition of various cancer cells (PrestoBlue), K562; type: cell-based; details: Homo sapiens, Leukemia, 72 hours
Experimental: as §2, §3

[11] = tested on: MOLM-13; test: Proliferation inhibition of various cancer cells (PrestoBlue), MOLM-13; type: cell-based; details: Homo sapiens, Leukemia, 72 hours
Experimental: as §2, §3

[12] = tested on: SNU-478; test: Proliferation inhibition of various cancer cells (PrestoBlue), SNU-478; type: cell-based; details: Cholangiocarcinoma; 72 hours
Experimental: as §2, §3

[13] = tested on: eleven types of cancer cells; test: Proliferation inhibition of eleven types of cancer cells (summary by cancer type); type: cell-based
Experimental: as §2, §3

[14] = tested on: NCI-H69; test: Small-cell-lung cancer cell proliferation inhibition assay (PrestoBlue), NCI-H69; type: cell-based; details: Homo sapiens, MYCN amplified SCLC cells, 72 hours
Experimental: as §1

[15] = all eleven cancer types, read-out: IC50 in inhibiting proliferation of all the eleven types of cancer cells
[16] = breast cancer, read-out: IC50 in inhibiting proliferation of cells
[17] = cholangiocarcinoma, read-out: IC50 in inhibiting proliferation of cells
[18] = non-small cell lung cancer, pancreatic cancer, and colon cancer, read-out: IC50 in inhibiting proliferation of cells
[19] = prostate cancer, read-out: IC50 in inhibiting proliferation of cells
[20] = small-cell-lung cancer, liver cancer, neuroblastoma, brain cancer, and leukemia, read-out: IC50 in inhibiting proliferation of cells

Compound	protein level of cMYC [1]	IC50 [2] [µM]	IC50 [3] [µM]	IC50 [4] [µM]	IC50 [5] [µM]	IC50 [6] [µM]	IC50 [7] [µM]	IC50 [8] [µM]	IC50 [9] [µM]	IC50 [10] [µM]	IC50 [11] [µM]	IC50 [12] [µM]	IC50 [13, 15] [µM]	IC50 [13, 16] [µM]	IC50 [13, 17] [µM]	IC50 [13, 18] [µM]	IC50 [13, 19] [µM]	IC50 [13, 20] [µM]	IC50 [14] [µM]
CCN1CCN(c2cc(Nc3cc(C)[nH]n3)nc(N[C@H]3CCN(C(=O)c4ccc(Cl)cc4F)C3)n2)CC1 [Compound 41]	greatly reduced	< 1	< 1	< 0.2	< 2	< 1	< 0.3	< 10	< 0.2	< 1	< 0.2	< 2	< 10	< 0.3	< 2	< 1	< 10	< 0.2	–
CCN1CCN(c2cc(Nc3cc(C)[nH]n3)nc(NC3CCN(C(=O)c4cccc(Cl)c4F)CC3)n2)CC1 [Compound 86]	greatly reduced	< 1	< 1	< 0.2	< 2	< 1	< 0.3	< 10	< 0.3	< 1	< 0.2	< 2	< 10	< 0.3	< 2	< 1	< 10	< 0.2	< 1
